Test results reported in publication PMC12087874, “Biaryl Phosphates and Phosphonates as Selective Inhibitors of the Transcription Factor STAT4” (Angewandte Chemie (International Ed. in English), 2025).

What was measured:
Assay type in all cases: binding
STAT5a = target: T1, STAT5a (Homo sapiens, UniProt P42229); test: Competitive fluorescence polarization (FP) assay, STAT5a SH2 domain; details: for Ki: Ki derived from IC50; for IC50: mean ± SD, n = 3
T1 sequence (P42229 1-794): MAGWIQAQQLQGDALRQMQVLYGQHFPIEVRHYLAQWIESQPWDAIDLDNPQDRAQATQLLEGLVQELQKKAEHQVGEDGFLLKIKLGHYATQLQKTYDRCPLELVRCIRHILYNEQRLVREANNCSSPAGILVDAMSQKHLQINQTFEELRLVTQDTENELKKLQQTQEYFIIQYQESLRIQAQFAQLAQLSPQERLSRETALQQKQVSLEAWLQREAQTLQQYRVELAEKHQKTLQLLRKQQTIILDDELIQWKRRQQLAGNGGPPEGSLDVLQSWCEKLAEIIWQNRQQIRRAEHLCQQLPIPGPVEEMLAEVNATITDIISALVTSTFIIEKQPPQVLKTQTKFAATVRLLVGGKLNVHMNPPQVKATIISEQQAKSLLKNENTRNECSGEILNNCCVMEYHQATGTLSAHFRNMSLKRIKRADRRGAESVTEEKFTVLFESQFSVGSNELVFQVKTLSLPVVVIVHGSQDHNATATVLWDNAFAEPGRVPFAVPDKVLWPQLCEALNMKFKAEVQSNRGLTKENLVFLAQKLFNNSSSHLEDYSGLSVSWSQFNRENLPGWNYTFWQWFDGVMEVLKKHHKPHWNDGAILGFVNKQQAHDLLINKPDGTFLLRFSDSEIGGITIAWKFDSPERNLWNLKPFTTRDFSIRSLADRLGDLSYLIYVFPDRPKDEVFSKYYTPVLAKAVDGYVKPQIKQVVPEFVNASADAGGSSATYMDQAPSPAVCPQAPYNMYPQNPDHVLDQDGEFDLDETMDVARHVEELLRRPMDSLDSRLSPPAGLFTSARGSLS
Protocol: (§1) Fluorescence polarization assays
(§2) Competitive fluorescence polarization assays, which measure the abilities of test compounds (dissolved in DMSO) to displace a fluorescent-labeled peptide from the SH2 domain of a STAT protein, were carried out essentially as described. Proteins were used at the following final concentrations: 23 nM or 28 nM for STAT4; between 56 nM and 91 nM for STAT1; 107 nM or 110 nM for STAT3; between 131 nM and 177 nM for STAT5a; between 62 nM and 85 nM for STAT5b; and 101 nM or 106 nM for STAT6. These concentrations represent the approximate […]
(§3) dissociation constant for peptide binding of the respective protein batches used in the assays.
(§4) The following peptides were used: 5-carboxyfluorescein-GpYLPQNID-OH for STAT4; 5-carboxyfluorescein-GpYDKPHVL for STAT1; 5-carboxyfluorescein-GpYLPQTV-NH2 for STAT3; 5-carboxyfluorescein-GpYLVLDKW for STAT5a/b, and 5-carboxyfluorescein- […]
(§5) Gp[…]-OH for STAT6. All peptides were used at a final concentration of 10 nM. The buffer consisted of 10 mM Tris (pH 8.0), 50 mM NaCl, 1 mM EDTA, 1 mM DTT, 0 .1 % Nonidet P-40 substitute, and 2 % DMSO. After incubation of protein and test compound for 1 h at room temperature, the fluorescent -labeled peptide was added. Samples were transferred to 384 - well microtiter plates and fluorescence polarization was read after an additional 60 min of incubation time. Measurements were performed in triplicate. Percent binding was calculated based on a logarithmic curve fit using OriginPro 8G software. IC 50 values were converted to Ki-values via the published equation[3] using the corresponding Excel spread sheet […]
(§6) https://websites.umich.edu/~shaomengwanglab/software/calc_ki/index.html .
(§7) Error bars represent standard deviations. Ligand efficiencies (LE) were calculated by the formula LE = -1,37 x log Ki / number of non-hydrogen atoms.[4] […]

STAT3 = STAT3 (Homo sapiens, UniProt P40763); test: Competitive fluorescence polarization (FP) assay, STAT3 SH2 domain; details: for IC50: mean ± SD, n = 3; for Ki: tracer 5-carboxyfluorescein-GpYLPQTV-NH2, Ki derived from IC50
Protocol: as §1, §2, §3, §4, §5, §6, §7

STAT5b = target: T2, STAT5b (Homo sapiens, UniProt P51692); test: Competitive fluorescence polarization (FP) assay, STAT5b SH2 domain; details: for Ki: Ki derived from IC50; for IC50: mean ± SD, n = 3
T2 sequence (P51692 1-787): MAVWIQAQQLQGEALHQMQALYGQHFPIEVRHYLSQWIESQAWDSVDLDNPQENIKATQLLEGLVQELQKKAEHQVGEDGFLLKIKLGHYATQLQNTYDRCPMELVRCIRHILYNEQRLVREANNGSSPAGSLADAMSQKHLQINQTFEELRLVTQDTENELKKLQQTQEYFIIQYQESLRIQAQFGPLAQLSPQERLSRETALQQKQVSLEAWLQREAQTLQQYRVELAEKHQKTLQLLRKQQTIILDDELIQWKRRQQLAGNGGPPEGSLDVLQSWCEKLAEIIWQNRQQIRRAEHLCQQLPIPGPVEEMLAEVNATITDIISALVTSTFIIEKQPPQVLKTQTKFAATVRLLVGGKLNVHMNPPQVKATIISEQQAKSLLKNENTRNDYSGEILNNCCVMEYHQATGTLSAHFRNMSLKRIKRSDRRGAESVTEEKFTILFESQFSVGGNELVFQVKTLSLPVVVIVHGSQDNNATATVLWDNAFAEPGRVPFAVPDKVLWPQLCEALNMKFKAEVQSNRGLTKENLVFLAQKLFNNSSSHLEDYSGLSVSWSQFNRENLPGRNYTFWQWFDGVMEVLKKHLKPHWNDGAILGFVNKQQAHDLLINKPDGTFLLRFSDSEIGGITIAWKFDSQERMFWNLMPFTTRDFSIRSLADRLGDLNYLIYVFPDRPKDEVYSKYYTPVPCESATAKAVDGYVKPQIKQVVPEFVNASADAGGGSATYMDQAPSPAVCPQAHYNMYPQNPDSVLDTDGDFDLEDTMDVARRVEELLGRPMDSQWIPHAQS
Protocol: as §1, §2, §3, §4, §5, §6, §7

STAT3, sequence (P40763 whole entry, species assumed, the tested form may be a part): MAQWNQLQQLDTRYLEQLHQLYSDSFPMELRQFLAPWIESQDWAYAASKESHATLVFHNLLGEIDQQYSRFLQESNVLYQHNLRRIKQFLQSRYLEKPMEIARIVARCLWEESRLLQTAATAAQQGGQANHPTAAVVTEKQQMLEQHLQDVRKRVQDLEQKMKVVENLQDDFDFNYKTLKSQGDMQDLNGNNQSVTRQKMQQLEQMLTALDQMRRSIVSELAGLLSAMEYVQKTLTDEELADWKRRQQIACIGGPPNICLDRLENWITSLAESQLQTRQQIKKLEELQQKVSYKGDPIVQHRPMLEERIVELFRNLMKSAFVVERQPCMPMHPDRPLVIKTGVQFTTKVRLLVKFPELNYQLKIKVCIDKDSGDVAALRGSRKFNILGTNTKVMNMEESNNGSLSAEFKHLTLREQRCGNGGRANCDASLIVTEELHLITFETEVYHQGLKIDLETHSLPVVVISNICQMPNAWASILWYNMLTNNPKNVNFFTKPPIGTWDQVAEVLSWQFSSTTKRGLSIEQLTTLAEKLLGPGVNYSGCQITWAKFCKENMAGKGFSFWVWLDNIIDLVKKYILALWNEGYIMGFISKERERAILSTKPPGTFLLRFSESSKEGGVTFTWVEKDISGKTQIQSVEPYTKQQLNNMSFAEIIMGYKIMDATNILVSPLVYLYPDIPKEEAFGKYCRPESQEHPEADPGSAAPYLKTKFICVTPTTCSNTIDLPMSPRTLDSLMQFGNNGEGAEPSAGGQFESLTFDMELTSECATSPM

| SMILES | Ki (STAT5a) [µM] | IC50 (STAT5a) [µM] | IC50 (STAT3) [µM] | Ki (STAT3) [µM] | Ki (STAT5b) [µM] | IC50 (STAT5b) [µM] |
| --- | --- | --- | --- | --- | --- | --- |
| O=P(O)(O)Oc1ccc(-c2ccccc2)cc1 [Compound 1, para‐biphenyl phosphate] | 22 ± 2 | 42 ± 4 | 18 ± 3 | 8.4 ± 1 | 47 ± 3 | 95 ± 6 |
| O=P(O)(O)Oc1ccc(-c2ccc3ccccc3c2)cc1 [Compound 6g] | 27 ± 2 | 55 ± 4 | 37 ± 2 | 18 ± 1 | 53 ± 5 | 109 ± 11 |
| O=P(O)(O)Oc1ccc(-c2ccccc2)cc1F [Compound 6h] | 28 ± 1 | 57 ± 2 | 9.1 ± 0.6 | 4.5 ± 0.3 | 45 ± 7 | 91 ± 14 |
| O=P(O)(O)Oc1ccc(-c2ccc3ccccc3c2)cc1F [Compound 6m] | 22 ± 1 | 45 ± 2 | 10 ± 1 | 5 ± 0.5 | 26 ± 2 | 52 ± 4 |
| O=P(O)(O)C(F)(F)c1ccc(-c2ccc3ccccc3c2)cc1F [Compound 8a] | 27 ± 1 | 54 ± 3 | 44 ± 2 | 22 ± 1 | 39 ± 1 | 79 ± 3 |
| Cc1cc(-c2ccc(C(F)(F)P(=O)(O)O)c(F)c2)cs1 [Compound 8k] | 39 ± 1 | 79 ± 2 | 31 ± 4 | 15 ± 2 | 64 ± 7 | 130 ± 14 |
